Tests used:
Format in all cases: cell-based, human
[1] = tested on: TRM-6/PDX-1 cells; test: Somatostatin expression after c-Myc induction in TRM-6 aggregates; conditions: four days of aggregation, presence of 4-OHTM
Protocol: (§1) To determine whether the induction of differentiation in the TRM-6 and βlox5 cell lines requires downregulation of c-Myc expression, the effect of inducing c-Myc activity on hormone expression in cells expressing the MycER fusion protein was tested. 4-OHTM or the same amount of ethanol carrier was added to TRM-6/PDX-1 and βlox5/PDX-1 cells at the initiation of the four day period of aggregation required for hormone induction. In addition, 100 nM of the GLP-1 agonist exendin-4 was added to βlox5/PDX-1, as activation of the GLP-1 receptor is necessary for β-cell differentiation in that cell line (Itkin-Ansari, et al., Molec. Endocrinol. 14:814-822(2000)).
(§2) In the absence of 4-OHTM, TRM-6 aggregates expressed high levels of somatostatin after four days of aggregation, while βlox5 aggregates expressed high levels of insulin. […] Insulin protein (273±70.5 pmoles/L) was detected by ELISA in supernatant from βlox5/PDX-1/MycER aggregates in the absence of 4-OHTM but was undetectable in the presence of 4-OHTM. Data were obtained from four independent experiments. To determine whether c-Myc activation produced ablation of hormone expression as opposed to a switch to a different endocrine lineage, the expression of the other major pancreatic hormones, somatostatin, glucagon and pancreatic polypeptide, was measured in 4-OHTM-treated βlox5/PDX-1/MycER cells and found to be absent.

[2] = tested on: βlox5/PDX-1/MycER aggregates; test: Transcription factor expression after c-Myc activation (RT-PCR, EMSA, western blot); conditions: c-Myc activation by 4-OHTM
Protocol: For western blots, whole-cell extracts (10 μg of protein) from monolayer cultures and aggregates of TRM-6 and βlox5 cells as well as whole-cell extracts of the MycER expressing clones were used. Expression of c-Myc and MycER was determined by Western blot analysis with the human c-Myc-specific monoclonal antibody Myc-9E10 (Santa Cruz Biotechnology, Santa Cruz, Calif.) at a dilution of 1:250. The same membrane was re-probed with anti-actin rabbit antibody A2066 (Sigma, Saint Louis, Mo.) in order to verify the protein equivalence when comparing monolayers to aggregates. Western Blot for Phospho-CREB (Ser133) was performed using a polyclonal antibody (PhosphoPlusCREB (Ser133) Antibody Kit, Cell Signaling Technology, Beverly, Mass.) at a dilution of 1:500. Bound antibody was detected with horseradish peroxidase-linked anti-mouse or anti-rabbit Ig (Amersham Pharmacia Biotech, Buckinghamshire, England) and ECL (Amersham Pharmacia Biotech, Buckinghamshire, England).
βlox5 cells express Pax6 and RIPE3b in both the uninduced and induced states. BETA2/NeuroD is present only when the cells are induced. […] As shown by electrophoretic mobility shift assay analysis (EMSA), although not quantitative, we found binding of PDX-1, BETA2/NeuroD1 or RIPE3b to the insulin promoter in the samples from βlox5/PDX-1/MycER aggregates cultured with and without 4-OHTM. […]

[3] = tested on: βlox5/PDX-1/MycER aggregates; test: Ki-67 immunostaining for cell proliferation; conditions: 4-OHTM added to aggregates; 16% without 4-OHTM; n=300 cells
Excerpt: PDX-1 and cell-cell contact caused a decrease in cell proliferation in βlox5/PDX-1/MycER cells as shown by immunostaining for the proliferation-associated nuclear antigen Ki-67. In monolayer culture, 77% of βlox5 cells expressed Ki67, while only 16% of the cells in βlox5/PDX-1/MycER aggregates were Ki67 positive (n=300 cells in each case). Addition of 4-OHTM to the aggregates increased the percentage of Ki67 positive cells to 57%. In the absence of 4-OHTM, few cells in the aggregates were positive for Ki-67, while in the presence of 4-OHTM many cells throughout the aggregates were positive.

[4] = tested on: βlox5/PDX-1/MycER cells; test: PDX-1 cellular localization and p38 activation state
Excerpt: PDX-1 plays a role in the establishment and maintenance of β-cell differentiation. In both the βlox5 and TRM-6 cell lines, it is required for the induction of hormone expression. Therefore, PDX-1 was a good candidate for being a downstream target for c-Myc in the inhibition of hormone expression. Since, in the cell lines that we are studying, PDX-1 is introduced exogenously using a retroviral vector and is transcribed from the retroviral LTR promoter, it was unlikely that c-Myc would be acting at the transcriptional level. Therefore, we investigated PDX-1 cellular localization in βlox5/PDX-1/MycER cells in the presence and absence of 4-OHTM. […] However, many cells exposed to 4-OHTM continued to express PDX-1 in the nucleus and PDX-1 binding to a target DNA sequence could still be detected by EMSA. This could be due to the length of time that the cells were exposed to 4-OHTM or to other pathways such as p38 (RK/SAPK2) that influences PDX-1 localization and function.
Because PDX-1 localization has been reported to be influenced by the p38 pathway, the activation state of p38 was studied using a monoclonal antibody specific for the phosphorylated/active form of the enzyme. In control and 4-OHTM-treated βlox5/PDX-1/MycER cells, active p38 was present in the cytoplasm.

[5] = tested on: MycER fusion protein; test: RT-PCR of c-Myc downstream targets cyclin E and cyclin A after MycER activation; conditions: βlox5/PDX-1/MycER aggregates
Excerpt: To test the hypothesis that decreased c-Myc expression in cell aggregates plays a causal role in promoting differentiation by cell-cell contact, we took advantage of the inducible properties of a fusion protein between an estrogen receptor and c-Myc (Eilers, et al. Nature 340:66-68 (1989)). MycER was expressed in TRM-6 and βlox5 by retroviral infection followed by puromycin selection. Selected βlox5 and TRM-6 cells expressed MycER as shown by western blot analysis. To determine whether the fusion protein was active, the expression of cyclin E and cyclin A was determined since they are known downstream targets of c-Myc.

[6] = tested on: βlox5/PDX-1 cells; test: Expansion of βlox5/PDX-1 cells under continued administration; conditions: continued administration of 4-OHTM; cells ordinarily almost completely growth arrested
Excerpt: The finding that c-Myc induces the translocation of PDX-1 to the cytoplasm provides important clues to the mechanism by which c-Myc may act on pancreatic endocrine cell proliferation and differentiation. In our system, not only does PDX-1 play a role in inducing hormone expression, but it also produces a marked growth arrest, particularly in the β-cell line βlox5. […] Thus, cell-cell contact and PDX-1 each play dual roles in inhibiting entry into the cell cycle as well as promoting differentiation.

[7] = tested on: βlox5/PDX-1/MycER aggregates; test: Hormone expression after c-Myc induction in βlox5/PDX-1/MycER aggregates (RT-PCR, insulin ELISA)
Protocol: as §1, §2

[8] = tested on: βlox5 cells; test: RT-PCR analysis of pancreatic hormone gene expression in βlox5 cells
Protocol: FIG. 2: RT-PCR analysis of pancreatic hormone gene expression in βlox5. The conditions tested were βlox5 cells grown in monolayer culture, βlox5 cells infected with a retroviral vector expressing PDX-1, βlox5 cells grown as three-dimensional aggregates, and βlox5 cells treated with exendin-4. FIG. 2(A) insulin; FIG. 2(B) quantitative RT-PCR analysis of insulin gene expression; FIG. 2(C) other pancreatic hormones. Exendin-4 (Sigma) was used at a concentration of 10 nM. RT-PCR for insulin, somatostatin, glucagon, and IAPP have been described previously (Itkin-Ansari et al., submitted). Quantitative RT-PCR was done by interpolation from a standard curve constructed using a plasmid containing the human insulin cDNA.
PDX-1 also acted synergistically with cell-cell contact to further increase the level of somatostatin expression about 1,000-fold above the cells not expressing PDX-1, to a level similar to that found in normal human islets. To determine whether βlox5 could be induced to express pancreatic hormones, recombinant PDX-1 was expressed in βlox5 using a retroviral vector. […] Therefore, other factors were examined for their ability to induce hormone expression in βlox5 cells expressing PDX-1. Activin and betacellulin have been reported to be able to induce endocrine differentiation in cell lines and primary cells (Mashima et al., Diabetes 48:304-9 (1999), Huotari et al., Endocrinology 139, 1494-9 (1998), Mashima et al., J Clin Invest 97:1647-54 (1996), Yamaoka et al., J Clin Invest 102:294-301 (1998)). However, they had no effect on hormone expression in βlox5 cells (data not shown).
GLP-1, a small peptide cleaved from the proglucagon molecule, is an insulin secretogogue Drucker et al., Diabetes 47:159-69 (1998)).

[9] = tested on: βlox5 cells expressing both NeuroD/BETA2 and PDX-1; test: Insulin production (RT-PCR) in βlox5 cells expressing both NeuroD/BETA2 and PDX-1
Protocol: Cells were cultured in DMEM with 5.5 mM glucose and 10% FBS. Selection of clones was conducted in the same medium containing 300 ug/ml Hygromycin B. Qualitative RT-PCR was performed according to Itkin-Ansari et al., Mol. Endocrinol. 14:814-822 (2000).
In light of the previous finding that activation of GLP-1 receptor is one of the necessary inducing factors for β-cell differentiation, βlox5 cells expressing both NeuroD/BETA2 and PDX-1 were also tested for insulin production, before and after stimulation by exendin-4. The cells were treated with 10 nM exendin-4 in the culture medium for four days before the assay.
Cell aggregation was induced as described by Itkin-Ansari et al., supra, 2000. Quantitative insulin RT-PCR was performed by interpolation from a standard curve constructed using a plasmid containing the human insulin cDNA, as described by Beattie et al., Diabetes, 48:1013-1019, 1999.

[10] = tested on: βlox5 cells; test: Analysis of transcription factors (BETA2 RT-PCR, CREB western blot) in βlox5 cells
Protocol: FIG. 3: Analysis of transcription factors expressed in βlox5 cells. FIG. 3(A) electrophoretic mobility shift assay (EMSA) of PDX-1. EMSA for PDX-1 was performed using a probe derived from the human insulin promoter A5 element. FIGS. 3(B&C) RT-PCR analysis of BETA2 and Pax6. FIG. 3(D) Western blot analysis of CREB. FIG. 3(E) EMSA of RIPE3b.
The expression of transcription factors important in β-cell development was examined to determine whether they had been induced by PDX-1, cell-cell contact, and exendin-4. […] GLP-1 has been reported to increase cAMP levels and this has been thought to be a major mechanism by which GLP-1 acts as an insulin secretogogue (Serre et al., Endocrinology 139:4448-54 (1998)). […] RIPE3b, a factor that plays a critical role in insulin gene expression but that has not yet been cloned, is expressed in βlox5 irrespective of PDX-1, cell-cell contact, or exendin-4 (FIG. 3E).

[11] = induced βlox5 cells (PDX-1, cell-cell contact, exendin-4)

Compound: CC/C(=C(\c1ccc(O)cc1)c1ccc(OCCN(C)C)cc1)c1ccccc1 [4-OHTM]
- somatostatin mRNA [1]: neither somatostatin nor insulin mRNA was present
- level of mRNA for Pax6 and induction of BETA2/NeuroD1 gene expression ([2]; RT-PCR): did not result in a change
- CREB expression ([2]; western blot): not affected
- percentage of Ki67 positive cells [3]: 57%
- PDX-1 cellular localization ([4]; 4-OHTM-induced activation of c-Myc): translocation of PDX-1 from the nucleus to the cytoplasm
- p38 expression or activation ([4]; 4-OHTM-treated cells, antibody to phosphorylated/active p38): did not result in any changes
- cyclin A expression [5]: did not affect
- cyclin E mRNA expression [5]: increase
- cell growth [6]: rapid expansion
- expression of somatostatin, glucagon and pancreatic polypeptide ([7]; 4-OHTM-treated βlox5/PDX-1/MycER cells): absent
- insulin mRNA ([7]; four days of aggregation, 100 nM exendin-4, presence of 4-OHTM): neither somatostatin nor insulin mRNA was present
- insulin protein in supernatant by ELISA ([7]; presence of 4-OHTM, 273±70.5 pmoles/L in its absence, four independent experiments): undetectable

Compound: Activin
- effect on hormone expression in βlox5 cells ([8]; βlox5 cells expressing PDX-1, data not shown): no effect

Compound: exendin-4
- insulin production ([9]; 10 nM exendin-4, suspension culture, three-dimensional aggregates): clearly detectable
- insulin production ([9]; exendin-4 treatment alone, 10 nM, four days): incapable of inducing insulin production
- BETA2 expression ([10]; PDX-1, cell-cell contact and exendin-4): induced only by the combination of all three inducing factors
- CREB expression ([10]; exendin-4 alone, independently of cell-cell contact and PDX-1): induced
- effect on hormone expression in βlox5 ([8]; exendin-4 by itself, 10 nM, four days): no effect
- Islet amyloid polypeptide (IAPP) mRNA [8, 11]: expressed
- glucagon, somatostatin and pancreatic polypeptide (PP) expression [8, 11]: not induced
- insulin mRNA ([8]; βlox5 cells expressing PDX-1, suspension culture as three-dimensional aggregates, 10 nM exendin-4): a substantial amount of insulin mRNA was detectable
